According to patent publication US6924269B2, “Enzyme inhibitors and methods therefor” (VDF Futureceuticals, Inc., priority 2002, dated 2005):

Assays:
COX-1 = target: T1, COX-1 (Homo sapiens, UniProt P23219); assay: COX-1 enzyme inhibition study (human platelets, endogenous arachidonic acid, EIA of PGE2); assay type: biochemical
T1 construct: the source material was human platelets using endogenous arachidonic acid; endogenous in cells; host or cells: human platelets
Description: COX-1 enzyme inhibition study was performed using a protocol similar to protocols previously described (see e.g., Riendeau D, et al. in Brit. J. Pharmacol. (1997) 121:105-117; or Warner et al. in Proc. Natl. Acad.Sci. (1999) 96:7563-7568). Typically, the source material was human platelets using endogenous arachidonic acid (Vehicle 1% DMSO) at a preincubation time of 15 min at 37 Centigrades and an incubation time of 15 min at 37 Centigrades (Incubation buffer was HBSS buffer with 15mM HEPES pH7.4). Quantitative analysis was performed via EIA determination of PGE2.

COX-2 = target: T2, COX-2 (Homo sapiens, UniProt P35354); assay: COX-2 enzyme inhibition study (human recombinant, Sf9 cells, 0.3 microM arachidonic acid, PGE2 determination); assay type: biochemical
T2 construct: host or cells: Sf9 insect cells
T2 sequence (P35354 18-604): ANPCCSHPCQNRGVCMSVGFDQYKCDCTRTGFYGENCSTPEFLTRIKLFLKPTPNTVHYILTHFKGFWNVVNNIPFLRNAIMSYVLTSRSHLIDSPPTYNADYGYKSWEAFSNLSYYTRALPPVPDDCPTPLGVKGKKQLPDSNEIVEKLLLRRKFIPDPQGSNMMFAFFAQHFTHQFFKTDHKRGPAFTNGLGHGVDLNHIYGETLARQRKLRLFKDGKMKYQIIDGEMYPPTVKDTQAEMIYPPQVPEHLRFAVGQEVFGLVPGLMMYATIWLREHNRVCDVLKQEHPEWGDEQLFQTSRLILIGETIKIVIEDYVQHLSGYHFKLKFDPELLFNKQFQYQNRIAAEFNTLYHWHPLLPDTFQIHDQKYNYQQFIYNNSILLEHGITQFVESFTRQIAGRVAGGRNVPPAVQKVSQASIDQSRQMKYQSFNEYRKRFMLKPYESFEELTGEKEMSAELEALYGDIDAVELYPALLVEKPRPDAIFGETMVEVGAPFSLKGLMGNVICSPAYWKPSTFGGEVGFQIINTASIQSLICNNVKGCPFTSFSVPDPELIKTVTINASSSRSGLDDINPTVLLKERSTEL
Description: COX-2 enzyme inhibition study was performed using a protocol similar to protocols previously described (see e.g., Riendeau D, et al. in Can. J. Physiol. Pharmacol. (1997) 75:1088-11095; or Warner et al. in Proc. Natl. Acad.Sci. (1999) 96:7563-7568). Typically, the source material was human recombinant Sf9 cells using 0.3 microM arachidonic acid (Vehicle 1% DMSO) at a preincubation time of 15 min at 37 Centigrades and an incubation time of 15 min at 37 Centigrades (Incubation buffer was 100 mM Tris 1 mM Glutathione, 1 microM hematin, and 0.5mM phenol, pH7.7). Quantitative analysis was performed via ETA determination of PGE2.

T1 sequence (P23219 24-599): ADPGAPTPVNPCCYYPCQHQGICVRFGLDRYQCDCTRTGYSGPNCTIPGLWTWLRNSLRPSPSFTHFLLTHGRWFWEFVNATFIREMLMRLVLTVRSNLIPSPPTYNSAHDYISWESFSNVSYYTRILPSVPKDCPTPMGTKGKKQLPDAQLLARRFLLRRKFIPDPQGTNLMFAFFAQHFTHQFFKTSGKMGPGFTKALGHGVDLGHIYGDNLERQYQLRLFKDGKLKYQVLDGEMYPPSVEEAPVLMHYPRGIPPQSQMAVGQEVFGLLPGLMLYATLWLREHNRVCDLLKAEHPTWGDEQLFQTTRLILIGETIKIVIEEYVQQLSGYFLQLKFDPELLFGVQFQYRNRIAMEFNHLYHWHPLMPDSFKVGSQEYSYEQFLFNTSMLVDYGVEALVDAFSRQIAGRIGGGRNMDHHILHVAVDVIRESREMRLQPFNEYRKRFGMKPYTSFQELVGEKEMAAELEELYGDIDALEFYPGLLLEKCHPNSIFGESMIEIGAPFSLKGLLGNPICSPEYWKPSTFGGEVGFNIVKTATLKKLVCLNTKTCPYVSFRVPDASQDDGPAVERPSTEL

Substance	COX-1 IC50 (COX-1) [µg/mL]	COX-1 (% Inhib.) (COX-1; concentration 100 μg/ml) [%]	COX-1 (% Inhib.) (COX-1; concentration 1000 μg/ml) [%]	COX-1 (% Inhib.) (COX-1; concentration 10 mg/ml) [%]	Selectivity COX-1 to COX-2 (COX-1; ratio of IC50 values, COX-1 over COX-2)	COX-2 IC50 (COX-2) [µg/mL]	COX-2 (% Inhib.) (COX-2; concentration 100 μg/ml) [%]	COX-2 (% Inhib.) (COX-2; concentration 1000 μg/ml) [%]	COX-2 (% Inhib.) (COX-2; concentration 10 mg/ml) [%]	Selectivity COX-2 to COX-1 (COX-2; ratio of IC50 values, COX-2 over COX-1)
Calcium Fructoborate	222	29	85	95	least 45-fold	>10000	8	12	10	
Potassium Boroascorbate	8570	−5	−2	69		<100	77	73	71	least 85-fold
